Source: paper PMC11979273, “A phase I study to evaluate the safety, tolerability, and pharmacokinetics of HEC113995PA·H2O, a novel dual-acting serotonergic antidepressant, in healthy subjects” (Frontiers in Pharmacology, 2025)
Like-named read-outs stand apart in the source and are kept apart here.

Experiment: Multiple ascending-dose (MAD) study, plasma pharmacokinetics
Format: in vivo, human
Conditions: for Cl/F / CLss/F / Css_max / Rac (AUC), accumulation ratio at steady state / Rac_Cmax, accumulation ratio at steady state / AUC(0-t) / Vd/F / Cmax / MRT inf / AUC / AUC(0-inf) / half-life / concentration at 10 day: mean (SD); for AUC(0-t) / Vd/F / Tmax / Tmax at 10 days / Cmax / MRT inf / AUC / AUC(0-inf) / half-life / concentration at 10 day: both sexes, human, plasma, oral; for MRT inf: read-out: MRT0-∞; for concentration at 10 day: read-out: Css_min
Procedure: Three drug doses (10, 20 and 40 mg) were utilized. A total of 36 healthy subjects of both genders were assigned randomly to the three groups (n = 12), with10 subjects taking HEC113995PA·H2O tablets and 2 taking placebo. The participants in the 10 mg dose group received a single dose daily in the morning after overnight fasting, or a single dose daily after a standard meal in the 20 mg and 40 mg dose groups for 10 consecutive days. Serial blood samples were collected within 0.5 h before drug administration on days 7, 8 and 9, and before and after drug administration on days 1 and 10 to determine plasma concentration and pharmacokinetic characteristics. Safety and tolerability were evaluated on days 4, 8, 13 and 15.
In the first dose group of single ascending-dose study, PK blood samples were collected at 0.5 h before administration and 0.5, 1, 1.5, 2, 2.5, 3, 4, 5, 6, 8, 10, 12, 24, 36, 48, and 72 h after administration. In other SAD groups, MAD groups and food effect study, PK blood samples were collected at 0.5 h before administration, and 1, 2, 3, 4, 5, 6, 7, 8, 10, 12, 24, 48, 72, 96, 120 and 144 h after administration. Approximately 4 mL of venous blood was obtained from each collection and placed in a vacuum collection vessel containing K2EDTA anticoagulant. The blood was centrifuged and packed according to the instruction provided by the Biological Sample Detection and Analysis Unit. Briefly, all samples were centrifuged at 4°C, 1,500 g for 10 min within 0.5 h after blood collection. After centrifugation, the plasma was aliquoted into two cryogenic storage tubes. The first tube (Tube A) contained at least 0.8 mL of plasma for analytical testing, and the remaining plasma is allocated into the backup tube (Tube B). The plasma samples were stored at −80°C within 1 h after aliquoting for further analysis.
The concentration of HEC113995PA·H2O in human plasma samples (K2EDTA) was quantitatively analyzed using the LC-MS/MS method. Plasma samples (50 μL) were processed using protein precipitation with 5 μL deuterated internal standard (HEC124659) and 100 μL acetonitrile. The Shimadzu LCMS-8060 system coupled with a GL Sciences Inc. InertSustain AQ-C18 HP column (50 × 2.1 mm, 3 μm) achieved chromatographic separation through gradient elution using 0.04% TFA aqueous solution (pH 2.1) and acetonitrile at 0.4 mL/min. ESI-positive mode detection employed optimized parameters: 300°C interface temperature, 250°C DL temperature, 3 L/min nebulizer gas, and 400°C heating block temperature.
Using WinNonlin 7.0 for non-compartmental analysis (NCA), pharmacokinetic (PK) parameters were meticulously calculated based on the actual sampling times for plasma, urine, and fecal samples from each subject post-administration. These parameters encompassed a comprehensive range, including the area under the concentration–time curve (AUC), AUC from time zero (pre-dose) to the time of the last measurable concentration (AUC0-t), and AUC from time zero (pre-dose) to infinity (AUC0-∞). Additionally, maximum observed plasma concentration (Cmax), time to achieve maximum plasma concentration (Tmax), terminal elimination half-life (t1/2), elimination rate constant (Ke), apparent volume of distribution (Vd/F), clearance rate (CL/F), and mean residence time (MRT) were also determined. The AUC0-t and AUC0-∞ values were computed using the linear trapezoidal rule method. Tmax and Cmax were ascertained based on the actual observed data. In the context of the multiple ascending-dose study, both the degree of fluctuation (DF) and the accumulation ratio at steady state (Rac) were thoroughly analyzed.

[1] = MAD 10 mg (N = 10), D1, fasting
[2] = MAD 20 mg (N = 9), D1, after standard meal
[3] = MAD 20 mg (N = 9), D10, QD after standard meal
[4] = MAD 40 mg (N = 10), D1, after standard meal
[5] = MAD 40 mg (N = 10), D10, QD after standard meal

Structure (SMILES): Cc1nc(-c2cnc(N3CCN(CCCc4c[nH]c5ccc(C#N)cc45)CC3)nc2)sc1C(N)=O [HEC113995PA·H2O]
- gender difference in systemic exposure (10 mg on an empty stomach, low sample size): no significant gender difference
- accumulation ratio (40 mg dose as printed in discussion): 2.4 fold
- continuous administration until PK steady state (10 to 40 mg daily): 7 days
- accumulation ratios (Rac), range (10–40 mg range, discussion): 1.83–2.41
- gender difference in systemic exposure (20 and 40 mg following a standard meal, single and multiple administrations): no apparent gender difference
- Cl/F [1]: 9.4 L/h
- Cl/F [2]: 8.1 L/h
- CLss/F [3]: 7.27 (0.97) L/h
- Css_max [3]: 202.6 (39.27) ng/mL
- Rac (AUC), accumulation ratio at steady state [3]: 1.83 (0.16)
- Rac_Cmax, accumulation ratio at steady state [3]: 1.96 (0.28)
- Cl/F [4]: 8.8 L/h
- CLss/F [5]: 7.25 (1.4) L/h
- Css_max [5]: 435.6 (87.5) ng/mL
- Rac (AUC), accumulation ratio at steady state [5]: 1.96 (0.35)
- Rac_Cmax, accumulation ratio at steady state [5]: 2.1 (0.4)
- accumulation ratio Rac_Cmax, arithmetic mean range (after multiple administrations, 10, 20, 40 mg groups): 1.9546–2.4058
- AUC(0-t) (10 mg, MAD 10 mg (N = 10), D1, fasting, read-out: AUC0-t): 483 ng·h/mL
- AUC(0-t) (10 mg, MAD 10 mg (N = 10), D1, fasting, read-out: AUC0–24h): 486 ng·h/mL
- Vd/F (10 mg, MAD 10 mg (N = 10), D1, fasting, read-out: Vz/F): 350 L
- Tmax (10 mg, MAD 10 mg (N = 10), D1, fasting, median (min, max), read-out: Tmax): 5.5 h
- Vd/F (10 mg, MAD D10, 10 mg dose group, read-out: Vss/F): 521 L
- Tmax at 10 days (10 mg, MAD D10, 10 mg dose group, median (min, max)): 4.5 h
- AUC(0-t) (20 mg, MAD 20 mg (N = 9), D1, after standard meal, read-out: AUC0-t): 1520 ng·h/mL
- AUC(0-t) (20 mg, MAD 20 mg (N = 9), D1, after standard meal, read-out: AUC0–24h): 1530 ng·h/mL
- Vd/F (20 mg, MAD 20 mg (N = 9), D1, after standard meal, read-out: Vz/F): 189 L
- Tmax (20 mg, MAD 20 mg (N = 9), D1, after standard meal, median (min, max), read-out: Tmax): 5 h
- Vd/F (20 mg, MAD 20 mg (N = 9), D10, QD after standard meal, read-out: Vss/F): 402 L
- Tmax at 10 days (20 mg, MAD 20 mg (N = 9), D10, QD after standard meal, median (min, max)): 2 h
- AUC(0-t) (40 mg, MAD 40 mg (N = 10), D1, after standard meal, read-out: AUC0-t): 2920 ng·h/mL
- AUC(0-t) (40 mg, MAD 40 mg (N = 10), D1, after standard meal, read-out: AUC0–24h): 2930 ng·h/mL
- Vd/F (40 mg, MAD 40 mg (N = 10), D1, after standard meal, read-out: Vz/F): 192 L
- Tmax (40 mg, MAD 40 mg (N = 10), D1, after standard meal, median (min, max), read-out: Tmax): 5 h
- Vd/F (40 mg, MAD 40 mg (N = 10), D10, QD after standard meal, read-out: Vss/F): 321 L
- Tmax at 10 days (40 mg, MAD 40 mg (N = 10), D10, QD after standard meal, median (min, max)): 2.5 h
- Tmax (40 mg, following a single administration, 10, 20, 40 mg groups, read-out: median time to peak concentration (Tmax), range): 5 to 5.5 h
- Cmax [1]: 30.6 ng/mL
- MRT inf [1]: 40 h
- Cmax [2]: 104 ng/mL
- MRT inf [2]: 25.3 h
- AUC [3]: 2790 ng·h/mL
- AUC(0-inf) [3]: 5470 ng·h/mL
- half-life [3]: 38.6 h
- concentration at 10 day [3]: 66.8 ng/mL
- Cmax [4]: 208 ng/mL
- MRT inf [4]: 24.3 h
- AUC [5]: 5730 ng·h/mL
- AUC(0-inf) [5]: 10500 ng·h/mL
- half-life [5]: 30.9 h
- concentration at 10 day [5]: 132 ng/mL
- half-life (MAD D10, 10 mg dose group): 39.1 h
- concentration at 10 day (MAD D10, 10 mg dose group): 30 ng/mL
- AUC(0-inf) (MAD D10, head prints 20 mg (N = 9)): 2490 ng·h/mL
